Tests used:
[1] = Hygroscopicity: mass increase on storage at 75.2% relative humidity; format: physicochemical; conditions: relative humidity 75.2%; for Increase rate of mass: at room temperature, after storage for 24 hours
Experimental: An experiment was carried out to compare the hygroscopicity of both the hydrous crystalline potassium salt of ascorbic acid 2-glucoside, obtained by the method in the Experiment 1, and the hydrous crystalline sodium salt of ascorbic acid 2-glucoside, obtained by the method described in Patent Literature 10. That is, 0.5 g each of the hydrous crystalline potassium salt of ascorbic acid 2-glucoside and the hydrous crystalline sodium salt of ascorbic acid 2-glucoside were weighted and stored in a desiccator conditioned to 75.2% relative humidity (RH) using saturated salt solution for 24 hours at room temperature. After that, the mass of each was measured, the mass increased by moisture absorption was determined, and the increase rate of mass {(Mass increased by storage)/(Mass at the beginning of storage)×100} (% by mass) was determined.

[2] = pH of 1% by mass aqueous solution; format: physicochemical; conditions: dissolved in deionized water
Experimental: 1% by mass of aqueous solution of the crystal obtained in Experiment 1 was prepared and its pH was measured.
A commercially available particulate composition containing anhydrous crystalline ascorbic acid 2-glucoside (product name “Ascofresh” (registered trademark), commercialized by Hayashibara Co., Ltd., Okayama, Japan) and a hydrous crystalline potassium salt of ascorbic acid 2-glucoside, obtained by the method in the Experiment 1 were made into compositions with the ratios by mass ranging from 100:0 to 0:100 as shown in Table 3. Each of the resulting compositions was dissolved in deionized water to give a concentration of 1% by mass, following by measuring the pHs of the resulting solutions.

Compound | Increase rate of mass [1] | Increase rate of mass relative to that of the hydrous crystalline sodium salt of ascorbic acid 2-glucoside ([1]; room temperature, 24 hours) | pH of 1% by mass aqueous solution [2]
O=C1O[C@H]([C@@H](O)CO)C([O-])=C1O[C@H]1O[C@H](CO)[C@@H](O)[C@H](O)[C@H]1O.[K+] [hydrous crystalline potassium salt of ascorbic acid 2-glucoside] | 9.1 % by mass | under 60% | 12.7
O=C1O[C@H]([C@@H](O)CO)C(O)=C1O[C@H]1O[C@H](CO)[C@@H](O)[C@H](O)[C@H]1O [2-O-α-D-Glucosyl-L-ascorbic acid] |  |  | 2.2
hydrous crystalline sodium salt of ascorbic acid 2-glucoside [reference compound] | 15.8 % by mass |  | 

Source: patent US12338264B2, “Crystalline potassium salt of 2-O-α-D-glucosyl-L-ascorbic acid and method for producing the same” (NAGASE VIITA CO., LTD., priority 2019, dated 2025)
